Legend:
[1] = system: Mycobacterium smegmatis strain M6-3; assay: Relative antibacterial potency, paper-disc agar diffusion method; type: cell-based; conditions: relative to tallysomycin A standard=1000 mcg/mg
Experimental: The relative antibacterial potencies (tallysomycin A standard=1000 mcg/mg) of the tallysomycin derivatives were determined by the paper-disc agar diffusion method using Mycobacterium smegmatis strain M6-3 as the assay organism.

[2] = system: lysogenic bacterium E. coli W1709 (λ); assay: Prophage induction of lysogenic bacterium (ILB activity); type: cell-based; conditions: t/c ratio of plaque counts greater than 3.0
Experimental: The activity of prophage induction of lysogenic bacterium E. coli W1709 (λ) was determined according to the method disclosed by Lein et al. in Nature 196: 783-784 (1962). The plaque count was made on the agar plate containing test compound (t) and control plate (c). A t/c ratio of the plaque counts of greater than 3.0 was defined to be a significant level and lysogenic induction activity (ILB activity) was expressed by the minimum inducible concentration of the test compound.

Sarcoma 180 = assay: animal or person; type: in vivo, dd-strain mice; conditions: copper-chelated form unless otherwise stated; for Antitumor activity S180 (ED150): ip, once daily 9 days, effective dose 150, survival; for Antitumor therapeutic index S180: single dose LD50/ED150
From the text: (§1) The antitumor activity of the tallysomycin derivatives was examined in four experimental tumor systems in mice. Lymphocytic leukemia P388 and Lewis lung carcinoma were implanted intraperitoneally into BDF1 mice of either sex at an inoculum size of 3×10^5 and 5×10^5 cells per mouse, respectively. Sarcoma 180 ascites tumor was inoculated intraperitoneally into male dd-strain mice with […] per mouse. Melanotic melanoma B16 was implanted subcutaneously into BDF1 mice with 5×10^5 cells per mouse. Twenty-four hours after the implantation of tumor cells, graded doses of test compounds were administered to mice intraperitoneally in an injection volume of 0.2 ml. per 10 grams of body weight. Test compounds were given once daily for 9 days (qd 1→9 schedule) except for the mice inoculated with Lewis lung carcinoma which were treated for 11 days (qd 1→11). Death or survival of the treated and non-treated (control) animals was recorded daily during the observation period of 45 days after the implantation of tumor cells, and the median survival time was calculated for each of the test (T) and control (C) groups. […] The actual dose giving a T/C of 125% was estimated by linear regression analysis and defined as the effective dose 125 or ED125. The effective dose 150 (ED150) was employed for the evaluation of antitumor effect against Sarcoma 180. In the B16 melanoma experiment the tumor size was measured on day 16 after tumor inoculation, and the dose giving 50% inhibition of tumor growth (ID50) was calculated from regression lines.
(§2) The antitumor therapeutic index was calculated for each derivative from the ratio of toxicity and antitumor activity.

[3] = Acute toxicity, single dose LD50; type: in vivo, dd mice; conditions: ip, 30 days observation, copper-chelated form unless otherwise stated
Experimental: Graded doses of test compounds were administered intraperitoneally to groups of dd mice. The injection was given one time only or once daily for 9 consecutive days. Death or survival of the animals was recorded for 30 days after the last dose of test compound to calculate the single or multiple median lethal dose (LD50).

Melanotic melanoma B16 = assay: Antitumor activity in mice, melanotic melanoma B16; type: in vivo, BDF1 mice; conditions: copper-chelated form unless otherwise stated; for Antitumor activity B16 (ID50): ip, once daily 9 days, 50% inhibition of tumor growth, day 16, 23040 min; for Antitumor therapeutic index B16: single dose LD50/ID50
From the text: as §1, §2

[4] = system: Lymphocytic leukemia P388; assay: animal or person; type: in vivo, BDF1 mice; conditions: copper-chelated form unless otherwise stated; for Antitumor activity P388 (ED125): ip, once daily 9 days, dose giving T/C survival of 125%; for Antitumor therapeutic index P388: single dose LD50/ED125
From the text: as §1, §2

Escherichia coli NIHJ = assay: MIC, two-fold agar dilution method; type: cell-based; conditions: nutrient agar
Experimental: (§3) The minimum inhibitory concentrations (MIC) of the semibiosynthetic tallysomycin derivatives of the present invention were determined against fungi and gram-positive, gram-negative and acid-fast bacteria by the two-fold agar dilution method. Nutrient agar was used for bacteria and Sabouraud agar for fungi. The results are shown in the table below comparatively with tallysomycin A and B.

[5] = system: Candida albicans IAM 4888; assay: MIC, two-fold agar dilution method; type: cell-based; conditions: Sabouraud agar
Experimental: as §3

[6] = system: Staphylococcus aureus Smith; assay: MIC, two-fold agar dilution method; type: cell-based; conditions: nutrient agar
Experimental: as §3

Proteus mirabilis A9554 = assay: MIC, two-fold agar dilution method; type: cell-based; conditions: nutrient agar
Experimental: as §3

Mycobacterium 607 = assay: MIC, two-fold agar dilution method; type: cell-based; conditions: nutrient agar
Experimental: as §3

[7] = system: Aspergillus fumigatus IAM 2593; assay: MIC, two-fold agar dilution method; type: cell-based; conditions: Sabouraud agar
Experimental: as §3

[8] = system: Bacillus subtilis PCI 219; assay: MIC, two-fold agar dilution method; type: cell-based; conditions: nutrient agar
Experimental: as §3

Sarcina lutea PCI1001 = assay: MIC, two-fold agar dilution method; type: cell-based; conditions: nutrient agar
Experimental: as §3

Lewis lung carcinoma = assay: Antitumor activity in mice, Lewis lung carcinoma; type: in vivo, BDF1 mice; conditions: copper-chelated form unless otherwise stated; for Antitumor activity Lewis lung (ED125): ip, once daily 11 days, dose giving T/C survival of 125%; for Antitumor therapeutic index Lewis Lung: single dose LD50/ED125
From the text: as §1, §2

| SMILES | Antibacterial potency [1] [μ/mg] | ILB activity (minimum inducible concentration) [2] [µg/mL] | Antitumor activity S180 (ED150) (Sarcoma 180) [mg/kg/day] | Antitumor therapeutic index S180 (Sarcoma 180) | LD50 single dose [3] [mg/kg/day] | Antitumor activity B16 (ID50) (Melanotic melanoma B16) [mg/kg/day] | Antitumor therapeutic index B16 (Melanotic melanoma B16) | Antitumor activity P388 (ED125) [4] [mg/kg/day] | Antitumor therapeutic index P388 [4] | minimum inhibitory concentration (MIC) (Escherichia coli NIHJ) | minimum inhibitory concentration (MIC) [5] | minimum inhibitory concentration (MIC) [6] | minimum inhibitory concentration (MIC) (Proteus mirabilis A9554) | minimum inhibitory concentration (MIC) (Mycobacterium 607) | minimum inhibitory concentration (MIC) [7] | minimum inhibitory concentration (MIC) [8] | minimum inhibitory concentration (MIC) (Sarcina lutea PCI1001) | Antitumor activity Lewis lung (ED125) (Lewis lung carcinoma) [mg/kg/day] | Antitumor therapeutic index Lewis Lung (Lewis lung carcinoma) |
| --- | --- | --- | --- | --- | --- | --- | --- | --- | --- | --- | --- | --- | --- | --- | --- | --- | --- | --- | --- |
| Cc1c(N)nc(C(CC(N)=O)NCC(N)C(N)=O)nc1C(=O)NC(C(=O)NC(C)C(O)CC(=O)NC(C(=O)NC(OC1OC(C)C(N)C(O)C1O)C(O)c1nc(-c2nc(C(=O)NCCN)cs2)cs1)C(C)O)C(OC1OC(CO)C(O)C(O)C1OC1OC(CO)C(O)C(OC(N)=O)C1O)c1c[nH]cn1 (stereo not drawn) [Tallysomycin S3b] | 725 | 0.31 | 0.06 | 317 | 19 | 0.20 | 95 | 0.32 | 59 | 0.1 | 12.5 | 0.8 | 0.2 | 0.05 | 0.8 | 0.013 | 1.6 | 0.26 | 73 |
| Cc1c(N)nc(C(CC(N)=O)NCC(N)C(N)=O)nc1C(=O)NC(C(=O)NC(C)C(O)CC(=O)NC(C(=O)NC(OC1OC(C)C(N)C(O)C1O)C(O)c1nc(-c2nc(C(=O)NCCCC(N)CC(=O)NCCCNCCO)cs2)cs1)C(C)O)C(OC1OC(CO)C(O)C(O)C1OC1OC(CO)C(O)C(OC(N)=O)C1O)c1c[nH]cn1 (stereo not drawn) [Tallysomycin S6a] | 460 | 0.02 | 0.09 | 167 | 15 | 0.12 | 125 | 0.70 | 21 | 0.4 | 6.3 | 0.8 | 1.6 | 0.4 | 0.2 | 0.03 | 1.6 | 0.47 | 32 |
| Cc1c(N)nc(C(CC(N)=O)NCC(N)C(N)=O)nc1C(=O)NC(C(=O)NC(C)C(O)CC(=O)NC(C(=O)NC(OC1OC(C)C(N)C(O)C1O)C(O)c1nc(-c2nc(C(=O)NCCCNCCO)cs2)cs1)C(C)O)C(OC1OC(CO)C(O)C(O)C1OC1OC(CO)C(O)C(OC(N)=O)C1O)c1c[nH]cn1 (stereo not drawn) [Tallysomycin S6b] | 340 | 0.08 | 0.08 | 375 | 30 | 0.22 | 136 | 2.2 | 14 | 0.4 | 25 | 6.3 | 3.1 | 0.2 | 0.8 | 0.02 | 12.5 | 0.17 | 176 |
| Cc1c(N)nc(C(CC(N)=O)NCC(N)C(N)=O)nc1C(=O)NC(C(=O)NC(C)C(O)CC(=O)NC(C(=O)NC(OC1OC(C)C(N)C(O)C1O)C(O)c1nc(-c2nc(C(=O)NCCCN(CCO)CCO)cs2)cs1)C(C)O)C(OC1OC(CO)C(O)C(O)C1OC1OC(CO)C(O)C(OC(N)=O)C1O)c1c[nH]cn1 (stereo not drawn) [Tallysomycin S8b] | 370 | 0.02 | 0.25 | 120 | 30 | 0.26 | 115 | 1.5 | 20 | 0.2 | > 50 | 0.4 | 0.8 | 0.1 | 1.6 | 0.013 | 0.8 | 0.12 | 250 |
| Cc1c(N)nc(C(CC(N)=O)NCC(N)C(N)=O)nc1C(=O)NC(C(=O)NC(C)C(O)CC(=O)NC(C(=O)NC(OC1OC(C)C(N)C(O)C1O)C(O)c1nc(-c2nc(C(=O)NCCNCCO)cs2)cs1)C(C)O)C(OC1OC(CO)C(O)C(O)C1OC1OC(CO)C(O)C(OC(N)=O)C1O)c1c[nH]cn1 (stereo not drawn) [Tallysomycin S9b] | 380 | 0.16 | 0.42 | 76 | 32 | 0.29 | 110 | > 3.0 | < 11 | 0.1 | 25 | 0.4 | 0.8 | 0.1 | 1.6 | 0.013 | 0.8 | 0.41 | 78 |
| CNCCCNC(=O)c1csc(-c2csc(C(O)C(NC(=O)C(NC(=O)CC(O)C(C)NC(=O)C(NC(=O)c3nc(C(CC(N)=O)NCC(N)C(N)=O)nc(N)c3C)C(OC3OC(CO)C(O)C(O)C3OC3OC(CO)C(O)C(OC(N)=O)C3O)c3c[nH]cn3)C(C)O)OC3OC(C)C(N)C(O)C3O)n2)n1 (stereo not drawn) [Tallysomycin S11b] | 450 | 0.63 | 0.20 | 105 | 21 | 0.70 | 30 | 0.28 | 75 | 0.2 | 12.5 | 3.1 | 1.6 | 0.1 | 6.3 | 0.1 | 0.8 | 0.32 | 66 |

— patent US4314028A, “Fermentation process for producing tallysomycin compounds” (priority 1980, dated 1982)
